# Source: patent publication EP0504184B1, “ACTIVE AGENT AGAINST RETROVIRUS GROUP VIRUSES, COMPOSITIONS CONTAINING SAME AND THEIR USE” (PREVISAN S.A., priority 1989, dated 1991)
# How the values were obtained:
# cellules Supt-1 = assay: Toxicity test of chloroazodine towards Supt-1 cells (cell viability); type: cell-based, humaine
# From the text: Ces essais comprennent comme matériel de départ : • de la N, N'-dichloroazodicarbonamidine (chloroazodine) à 95 % pure. La pureté a été examinée par chromatographie en couche mince et par un test de carbone-hydrogène (v. BRAZ G.I. et cons., J. Applied Chem. (USSR) 17,565-9 (1944)). • un surnageant de cultures de cellules (Molt-3) continuellement productrices de virus VIH-1. Le surnageant viral utilisé a une activité de transcriptase inverse de 1 x 10^6 cpm/ml. • des cellules d'une lignée T humaine continue de phénotype T4 (Supt-1) cultivée en milieu RPMI, additionné de 10 % de sérum de veau foetal et de 1 % de glutamine.
# Essai de toxicité de la chloroazodine vis-à-vis des cellules Supt-1.
# La chloroazodine à la dilution de 1/500, ce qui correspond à 2 mg/ml, est toxique pour les cellules Supt-1.
# provirus VIH-1 = assay: Integration of the viral genome into chromosomal DNA of Supt-1 cells (PCR of gag, LTR, env; hybridisation with P32 probes); type: cell-based; settings: for provirus VIH-1 dans les cellules Supt-1: hybridisation with P32 probes for gag, LTR, env
# From the text: Intégration du génome viral dans l'ADN chromosomial des cellules Supt-1.
# Par amplification génétique grâce à une polymérase thermostable, on met en évidence la présence des gènes "gag", "LTR" et "env" du provirus VIH-1. Cette technique est appelée P.C.R. (Polymerase Chain Reaction) (CHIN-YIH OU et cons., Sciences, 239, 295-297, 1988).
# Cette technique est appliquée pour la détection du provirus VIH-1 dans le génome des cellules Supt-1 inoculées par du virus VIH-1 incubé avec de la chloroazodine, comme décrit dans l'exemple 4.
# lymphocytes normaux = type: cell-based, humains
# From the text: (§1) Des lymphocytes humains provenant du sang périphérique de donneurs séro-négatifs (PBL) sont infectés par du VIH-1 provenant du surnageant de cellules Molt-3, c'est-à-dire de cellules continuellement productrices de ces virus.
# (§2) Quatre populations cellulaires sont étudiées quant à leur mortalité : • 1 des lymphocytes normaux en culture (Témoin A). • 2 des lymphocytes normaux en présence de chloroazodine 1/3000. • 3 des lymphocytes infectés non traités (Témoin B). • 4 des lymphocytes infectés, en présence de chloroazodine 1/3000. Tableau 4
# lymphocytes infectés = assay: Mortality of HIV-1 infected human peripheral blood lymphocytes with chloroazodine; type: cell-based, humains; settings: for Nombre de cellules mortes / Nombre de cellules vivantes: HIV-1 infected lymphocytes + chloroazodine 1/3000
# From the text: as §1
# Au jour 8 de l'infection, celle-ci est contrôlée par l'expression de l'antigène p 24 (Test Elisa, voir Exemple 4).
# as §2
# [1] = test system: virus VIH-1 dans des cellules Molt-3 B; assay: p24 antigen in culture supernatants of treated Molt-3 B cells continuously producing HIV (optical density); type: cell-based; settings: for Mesure du pouvoir infectieux des virus VIH-1 dans des cellules Molt-3 B (densité optique): p24 in supernatant
# Procedure: Des cellules Molt-3 B, continuellement productrices de virus VIH, ont été traitées par de la chloroazodine à des concentrations de 1/1500 et 1/3000 pendant des périodes de 1 minute, 10 minutes et 30 minutes.
# Les antigènes p 24 exprimes dans les surnageants de culture ont été évalués après 24 h., 48 h., 72 h. et 96 h.
# Pour mesurer cet effet en contournant la toxicité du produit pour les cellules infectées, on a choisi de prendre un nombre cellulaire extraordinairement élevé de manière à conserver un nombre très faible, mais suffisant, de cellules vivantes après 96 h. Tableau 5
# [2] = test system: virus VIH-1 dans des lymphocytes humains infectés; assay: p24 antigen of treated HIV-1 infected human lymphocytes (optical density); type: cell-based; settings: chloroazodine 1/3000
# From the text: On a reproduit l'expérience de l'exemple 7, mais avec des lymphocytes humains infectés par du VIH-1. La chloroazodine a été utilisée à la dose de 1/3000 pendant 1 heure, 3 heures et 6 heures sur les cellules infectées. Tableau 6
# Afin de conserver un nombre suffisant de lymphocytes vivants il a fallu limiter l'expérimentation à 6 heures.
compound,measurement,setting,value
"NC(N=NC(N)=NCl)=NCl [chloroazodine, N, N'-dichloroazodicarbonamidine]",toxicité vis-à-vis des cellules Supt-1,cellules Supt-1; dilution 1/500 (2 mg/ml),toxique
same,viabilité cellulaire (cellules Supt-1),cellules Supt-1; dilution 1/1500 (660 µg/ml),ne diminuent par contre pas la viabilité cellulaire
same,viabilité cellulaire (cellules Supt-1),cellules Supt-1; dilution 1/3000 (330 µg/ml),ne diminuent par contre pas la viabilité cellulaire
same,oligonucléotides amplifiés et visibles aux UV,"provirus VIH-1; PCR, ethidium bromide",apparaissent uniquement dans les tubes à essais qui correspondent à une inoculation par du virus VIH-1 non traité à la chloroazodine
same,provirus VIH-1 dans les cellules Supt-1,provirus VIH-1; virions treated at dilution 1/1500,absence totale de provirus VIH-1
same,provirus VIH-1 dans les cellules Supt-1,provirus VIH-1; virions treated at dilution 1/3000,absence totale de provirus VIH-1
same,différences entre les témoins A et B et les lymphocytes sains + chloroazodine,lymphocytes normaux,non significatives
same,Nombre de cellules mortes,lymphocytes infectés; duration 1 min,31
same,Nombre de cellules vivantes,lymphocytes infectés; duration 1 min,17
same,Nombre de cellules mortes,lymphocytes infectés; duration 10 min,34
same,Nombre de cellules vivantes,lymphocytes infectés; duration 10 min,14
same,Nombre de cellules mortes,lymphocytes infectés; duration 30 min,39
same,Nombre de cellules vivantes,lymphocytes infectés; duration 30 min,21
same,Nombre de cellules mortes,lymphocytes infectés; duration 180 min,20
same,Nombre de cellules vivantes,lymphocytes infectés; duration 180 min,8
same,toxicité sélective pour des cellules infectées,"lymphocytes infectés; conclusion from comparison of infected and normal lymphocytes, chloroazodine 1/3000",toxicité sélective de la chloroazodine pour des cellules infectées
same,Mesure du pouvoir infectieux des virus VIH-1 dans des cellules Molt-3 B (densité optique),"[1]; chloroazodine 1/1500, treatment 1 min, 24 h. after treatment","0,175"
same,Mesure du pouvoir infectieux des virus VIH-1 dans des cellules Molt-3 B (densité optique),"[1]; chloroazodine 1/1500, treatment 1 min, 48 h. after treatment","0,175"
same,Mesure du pouvoir infectieux des virus VIH-1 dans des cellules Molt-3 B (densité optique),"[1]; chloroazodine 1/1500, treatment 1 min, 72 h. after treatment","0,167"
same,Mesure du pouvoir infectieux des virus VIH-1 dans des cellules Molt-3 B (densité optique),"[1]; chloroazodine 1/1500, treatment 10 min, 24 h. after treatment","0,182"
same,Mesure du pouvoir infectieux des virus VIH-1 dans des cellules Molt-3 B (densité optique),"[1]; chloroazodine 1/1500, treatment 10 min, 48 h. after treatment","0,181"
same,Mesure du pouvoir infectieux des virus VIH-1 dans des cellules Molt-3 B (densité optique),"[1]; chloroazodine 1/1500, treatment 10 min, 72 h. after treatment","0,145"
same,Mesure du pouvoir infectieux des virus VIH-1 dans des cellules Molt-3 B (densité optique),"[1]; chloroazodine 1/1500, treatment 30 min, 24 h. after treatment","0,194"
same,Mesure du pouvoir infectieux des virus VIH-1 dans des cellules Molt-3 B (densité optique),"[1]; chloroazodine 1/1500, treatment 30 min, 48 h. after treatment","0,155"
same,Mesure du pouvoir infectieux des virus VIH-1 dans des cellules Molt-3 B (densité optique),"[1]; chloroazodine 1/1500, treatment 30 min, 72 h. after treatment","0,173"
same,Mesure du pouvoir infectieux des virus VIH-1 dans des cellules Molt-3 B (densité optique),"[1]; chloroazodine 1/3000, treatment 1 min, 24 h. after treatment","0,247"
same,Mesure du pouvoir infectieux des virus VIH-1 dans des cellules Molt-3 B (densité optique),"[1]; chloroazodine 1/3000, treatment 1 min, 48 h. after treatment","0,154"
same,Mesure du pouvoir infectieux des virus VIH-1 dans des cellules Molt-3 B (densité optique),"[1]; chloroazodine 1/3000, treatment 1 min, 72 h. after treatment","0,170"
same,Mesure du pouvoir infectieux des virus VIH-1 dans des cellules Molt-3 B (densité optique),"[1]; chloroazodine 1/3000, treatment 10 min, 24 h. after treatment","0,180"
same,Mesure du pouvoir infectieux des virus VIH-1 dans des cellules Molt-3 B (densité optique),"[1]; chloroazodine 1/3000, treatment 10 min, 48 h. after treatment","0,176"
same,Mesure du pouvoir infectieux des virus VIH-1 dans des cellules Molt-3 B (densité optique),"[1]; chloroazodine 1/3000, treatment 10 min, 72 h. after treatment","0,152"
same,Mesure du pouvoir infectieux des virus VIH-1 dans des cellules Molt-3 B (densité optique),"[1]; chloroazodine 1/3000, treatment 30 min, 24 h. after treatment","0,211"
same,Mesure du pouvoir infectieux des virus VIH-1 dans des cellules Molt-3 B (densité optique),"[1]; chloroazodine 1/3000, treatment 30 min, 48 h. after treatment","0,162"
same,Mesure du pouvoir infectieux des virus VIH-1 dans des cellules Molt-3 B (densité optique),"[1]; chloroazodine 1/3000, treatment 30 min, 72 h. after treatment","0,176"
same,production de VIH par des cellules infectées,"[1]; conclusion of example 7, Molt-3 B cells, chloroazodine 1/1500 and 1/3000",capable d'empêcher la production de VIH par des cellules infectées
same,Mesure du pouvoir infectieux des virus VIH-1 dans des lymphocytes humains infectés (densité optique),"[2]; treatment 1 hour, 4 days after treatment","0,170"
same,Mesure du pouvoir infectieux des virus VIH-1 dans des lymphocytes humains infectés (densité optique),"[2]; treatment 1 hour, 7 days after treatment","0,170"
same,Mesure du pouvoir infectieux des virus VIH-1 dans des lymphocytes humains infectés (densité optique),"[2]; treatment 1 hour, 11 days after treatment","0,114"
same,Mesure du pouvoir infectieux des virus VIH-1 dans des lymphocytes humains infectés (densité optique),"[2]; treatment 3 hours, 4 days after treatment","0,197"
same,Mesure du pouvoir infectieux des virus VIH-1 dans des lymphocytes humains infectés (densité optique),"[2]; treatment 3 hours, 7 days after treatment","0,158"
same,Mesure du pouvoir infectieux des virus VIH-1 dans des lymphocytes humains infectés (densité optique),"[2]; treatment 3 hours, 11 days after treatment","0,095"
same,Mesure du pouvoir infectieux des virus VIH-1 dans des lymphocytes humains infectés (densité optique),"[2]; treatment 6 hours, 4 days after treatment","0,192"
same,Mesure du pouvoir infectieux des virus VIH-1 dans des lymphocytes humains infectés (densité optique),"[2]; treatment 6 hours, 7 days after treatment","0,203"
same,Mesure du pouvoir infectieux des virus VIH-1 dans des lymphocytes humains infectés (densité optique),"[2]; treatment 6 hours, 11 days after treatment","0,078"
